# Data as given in patent publication US20200407717A1, “METHODS OF MODULATING ANTISENSE ACTIVITY” (Ionis Pharmaceuticals, Inc., priority 2018, published 2020).
# e = 2'-O-(2-methoxyethyl) (MOE); d = 2'-deoxy (DNA)
# Tested on: Malat1 RNA
# Assay: Antisense activity by RT-qPCR, Malat1, A431 cells
# Assay type: cell-based
# Experimental: A431 cells were grown at 10,000 cells per well and pre-treated with a variety of growth factors to determine if the addition of exogenous growth factors affects antisense activity or uptake of modified antisense oligonucleotides in a cell. The growth factors used were EGF, insulin growth factor (IGF), transforming growth factor (TGF), […] (VEGF), hepatocyte growth factor (HGF), platelet growth factor (PGF) and fibroblasts growth factor (FGF). To test antisense activity, cells were treated for 4 hours with a growth factor or vehicle alone, and then treated with compound no. 25690 (complementary to Drosha), compound no. 395254 (complementary to Malat1), or vehicle alone. RNA was isolated from the cells and Drosha or Malat1 RNA levels were measured by RT-qPCR. Human primer probe set 13816 (forward sequence […], designated herein as SEQ ID NO: 3; reverse sequence […], designated herein as SEQ ID NO: 4; probe sequence […], designated herein as SEQ ID NO: 5) was used to measure Drosha mRNA levels and primer probe set RTS2736 (forward sequence […], designated herein as SEQ ID NO: 6; reverse sequence […], designated herein as SEQ ID NO: 7; probe sequence TGCCACATCGCCACCCCGT, designated herein as SEQ ID NO: 8) was used to measure Malat1 RNA levels. Drosha and Malat1 RNA levels were normalized to total RNA content, as measured by RIBOGREEN®. Results are presented in the tables below as normalized RNA levels, relative to untreated control cells.
# A431 cells were treated with EGF or TGF at 200 ng/mL in the presence or absence of 1 μM of the EGFR tyrosine kinase inhibitor PD174265. The cells were then treated with compound no. 25690 or compound no. 395254 as in Example 8. Total RNA was isolated and analyzed by RT-qPCR, as in Example 8.
# Following siRNA treatment, cells were treated with compound no. 25690 or compound no. 395254 in the presence or absence of EGF. 16 hours after treatment with a PS-ASO with or without EGF, cells were harvested, and RNA levels were analyzed via RT-qPCR as in Example 8.
sequence,measurement,setting,value
"GGCATATGCAGATAATGTTC (sugars from the 5' end e5 d10 e5, all phosphorothioate, methylation of C not given here) [compound 395254]",Malat1 RNA (% Control),"125 nM, EGFR siRNA-1",26.5 % Control
same,Malat1 RNA (% Control),"125 nM, EGFR siRNA-2",26.6 % Control
same,Malat1 RNA (% Control),"125 nM, EGFR siRNA-2 + EGF",55.2 % Control
same,Malat1 RNA (% Control),"125 nM, EGFR siRNA-2, Table 27",53.1 % Control
same,Malat1 RNA (% Control),"125 nM, TGF",74.4 % Control
same,Malat1 RNA (% Control),"125 nM, TGF+PD174265",47.0 % Control
same,Malat1 RNA (% Control),"125 nM, TGF, Table 21",33.1 % Control
same,Malat1 RNA (% Control),"250 nM, Control",74.0 % Control
same,Malat1 RNA (% Control),"250 nM, Control Luciferase siRNA",16.3 % Control
same,Malat1 RNA (% Control),"250 nM, Control Luciferase siRNA, Table 27",27.6 % Control
same,Malat1 RNA (% Control),"250 nM, Control luciferase + EGF",24.9 % Control
same,Malat1 RNA (% Control),"250 nM, Control, Table 21",37.6 % Control
same,Malat1 RNA (% Control),"250 nM, EGF",43.6 % Control
same,Malat1 RNA (% Control),"250 nM, EGFR siRNA-1",19.7 % Control
same,Malat1 RNA (% Control),"250 nM, EGFR siRNA-2",21.5 % Control
same,Malat1 RNA (% Control),"250 nM, EGFR siRNA-2 + EGF",34.0 % Control
same,Malat1 RNA (% Control),"250 nM, EGFR siRNA-2, Table 27",29.7 % Control
same,Malat1 RNA (% Control),"250 nM, TGF",29.4 % Control
same,Malat1 RNA (% Control),"250 nM, TGF+PD174265",34.9 % Control
same,Malat1 RNA (% Control),"250 nM, TGF, Table 21",19.7 % Control
same,Malat1 RNA (% Control),"500 nM, Control",44.5 % Control
same,Malat1 RNA (% Control),"500 nM, Control Luciferase siRNA",11.9 % Control
same,Malat1 RNA (% Control),"500 nM, Control Luciferase siRNA, Table 27",18.9 % Control
same,Malat1 RNA (% Control),"500 nM, Control luciferase + EGF",17.1 % Control
same,Malat1 RNA (% Control),"500 nM, Control, Table 21",28.9 % Control
same,Malat1 RNA (% Control),"500 nM, EGF",26.1 % Control
same,Malat1 RNA (% Control),"500 nM, EGFR siRNA-1",16.9 % Control
same,Malat1 RNA (% Control),"500 nM, EGFR siRNA-2",15.1 % Control
same,Malat1 RNA (% Control),"500 nM, EGFR siRNA-2 + EGF",24.6 % Control
same,Malat1 RNA (% Control),"500 nM, EGFR siRNA-2, Table 27",23.4 % Control
same,Malat1 RNA (% Control),"500 nM, TGF",27.9 % Control
same,Malat1 RNA (% Control),"500 nM, TGF+PD174265",27.1 % Control
same,Malat1 RNA (% Control),"500 nM, TGF, Table 21",13.5 % Control
same,Malat1 RNA (% Control),"1000 nM, Control",27.0 % Control
same,Malat1 RNA (% Control),"1000 nM, Control Luciferase siRNA",7.9 % Control
same,Malat1 RNA (% Control),"1000 nM, Control Luciferase siRNA, Table 27",18.2 % Control
same,Malat1 RNA (% Control),"1000 nM, Control luciferase + EGF",15.2 % Control
same,Malat1 RNA (% Control),"1000 nM, Control, Table 21",15.2 % Control
same,Malat1 RNA (% Control),"1000 nM, EGF",15.1 % Control
same,Malat1 RNA (% Control),"1000 nM, EGFR siRNA-1",11.3 % Control
same,Malat1 RNA (% Control),"1000 nM, EGFR siRNA-2",12.7 % Control
same,Malat1 RNA (% Control),"1000 nM, EGFR siRNA-2 + EGF",21.4 % Control
same,Malat1 RNA (% Control),"1000 nM, EGFR siRNA-2, Table 27",17.2 % Control
same,Malat1 RNA (% Control),"1000 nM, TGF",14.2 % Control
same,Malat1 RNA (% Control),"1000 nM, TGF+PD174265",21.2 % Control
same,Malat1 RNA (% Control),"1000 nM, TGF, Table 21",7.2 % Control
same,Malat1 RNA (% Control),"2000 nM, Control",24.1 % Control
same,Malat1 RNA (% Control),"2000 nM, Control Luciferase siRNA",7.6 % Control
same,Malat1 RNA (% Control),"2000 nM, Control Luciferase siRNA, Table 27",15.2 % Control
same,Malat1 RNA (% Control),"2000 nM, Control luciferase + EGF",10.2 % Control
same,Malat1 RNA (% Control),"2000 nM, Control, Table 21",11.2 % Control
same,Malat1 RNA (% Control),"2000 nM, EGF",9.9 % Control
same,Malat1 RNA (% Control),"2000 nM, EGFR siRNA-1",10.2 % Control
same,Malat1 RNA (% Control),"2000 nM, EGFR siRNA-2",11.0 % Control
same,Malat1 RNA (% Control),"2000 nM, EGFR siRNA-2 + EGF",18.3 % Control
same,Malat1 RNA (% Control),"2000 nM, EGFR siRNA-2, Table 27",15.2 % Control
same,Malat1 RNA (% Control),"2000 nM, TGF",9.5 % Control
same,Malat1 RNA (% Control),"2000 nM, TGF+PD174265",10.2 % Control
same,Malat1 RNA (% Control),"2000 nM, TGF, Table 21",5.2 % Control
same,Malat1 RNA (% Control),"4000 nM, Control",17.9 % Control
same,Malat1 RNA (% Control),"4000 nM, Control Luciferase siRNA",1.3 % Control
same,Malat1 RNA (% Control),"4000 nM, Control Luciferase siRNA, Table 27",11.2 % Control
same,Malat1 RNA (% Control),"4000 nM, Control luciferase + EGF",7.2 % Control
same,Malat1 RNA (% Control),"4000 nM, Control, Table 21",7.2 % Control
same,Malat1 RNA (% Control),"4000 nM, EGF",10.3 % Control
same,Malat1 RNA (% Control),"4000 nM, EGFR siRNA-1",7.8 % Control
same,Malat1 RNA (% Control),"4000 nM, EGFR siRNA-2",11.1 % Control
same,Malat1 RNA (% Control),"4000 nM, EGFR siRNA-2 + EGF",17.2 % Control
same,Malat1 RNA (% Control),"4000 nM, EGFR siRNA-2, Table 27",15.2 % Control
same,Malat1 RNA (% Control),"4000 nM, TGF",11.6 % Control
same,Malat1 RNA (% Control),"4000 nM, TGF+PD174265",7.2 % Control
same,Malat1 RNA (% Control),"4000 nM, TGF, Table 21",5.7 % Control
same,IC50,"Control (no growth factor), Table 16",0.036 ± 0.0032 µM
same,IC50,"Control Luciferase siRNA, Table 25",0.046 ± 0.0053 µM
same,IC50,"Control Luciferase siRNA, Table 27",0.049 ± 0.0063 µM
same,IC50,"Control luciferase + EGF, Table 27",0.026 ± 0.0024 µM
same,IC50,"Control, Table 21",0.05 ± 0.007 µM
same,IC50,"EGF pre-treatment 4 hours, Table 16",0.015 ± 0.003 µM
same,IC50,"EGFR siRNA-1, Table 25",0.086 ± 0.0093 µM
same,IC50,"EGFR siRNA-2 + EGF, Table 27",0.087 ± 0.0042 µM
same,IC50,"EGFR siRNA-2, Table 25",0.1 ± 0.0097 µM
same,IC50,"EGFR siRNA-2, Table 27",0.089 ± 0.0059 µM
same,IC50,"TGF 200 ng/mL + 1 μM PD174265, Table 21",0.056 ± 0.0081 µM
same,IC50,"TGF 200 ng/mL, Table 21",0.021 ± 0.004 µM
same,IC50,"TGF pre-treatment 4 hours, Table 16",0.013 ± 0.0021 µM
same,"half maximal inhibitory concentration, Malat1","cells treated with IGF, FGF, HGF, VEGF or PGF relative to PS-ASO alone (data not shown)",unchanged
